Test results as given in paper PMC4429609 (Journal of medicinal chemistry, 2012).

How the values were obtained:
Experiment in all cases: biochemical
[1] = target: AKT1 (Homo sapiens, UniProt P31749); settings: read-out: % Inhibition at 1 μM, AKT1
[2] = target: CDK1/cyclin B (Homo sapiens, UniProt P06493); settings: read-out: % Inhibition at 1 μM, CDK1/cyclin B
[3] = target: CDK2/cyclin A (Homo sapiens, UniProt P24941); settings: read-out: % Inhibition at 1 μM, CDK2/cyclin A
[4] = target: CHK1 (Homo sapiens, UniProt O14757); settings: read-out: % Inhibition at 1 μM, CHK1
Sequence of CHK1 (O14757 whole entry): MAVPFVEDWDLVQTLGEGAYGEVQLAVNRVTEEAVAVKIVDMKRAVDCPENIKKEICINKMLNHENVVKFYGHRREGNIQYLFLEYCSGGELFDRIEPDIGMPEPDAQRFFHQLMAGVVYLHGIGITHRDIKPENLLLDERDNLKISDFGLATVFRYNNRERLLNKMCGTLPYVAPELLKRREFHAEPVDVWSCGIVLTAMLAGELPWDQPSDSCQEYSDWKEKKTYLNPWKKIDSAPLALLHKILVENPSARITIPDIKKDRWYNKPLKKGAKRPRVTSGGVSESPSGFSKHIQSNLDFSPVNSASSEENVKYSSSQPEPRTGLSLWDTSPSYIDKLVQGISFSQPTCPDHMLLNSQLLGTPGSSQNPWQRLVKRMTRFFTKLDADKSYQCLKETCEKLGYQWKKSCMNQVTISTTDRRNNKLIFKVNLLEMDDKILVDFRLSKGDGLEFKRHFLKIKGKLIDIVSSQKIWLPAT

[5] = target: CHK2 (Homo sapiens, UniProt O96017); settings: read-out: % Inhibition at 1 μM, CHK2
[6] = target: NEK11 (Homo sapiens, UniProt Q8NG66); settings: read-out: % Inhibition at 1 μM, NEK11
Sequence of NEK11 (Q8NG66 whole entry, looked up): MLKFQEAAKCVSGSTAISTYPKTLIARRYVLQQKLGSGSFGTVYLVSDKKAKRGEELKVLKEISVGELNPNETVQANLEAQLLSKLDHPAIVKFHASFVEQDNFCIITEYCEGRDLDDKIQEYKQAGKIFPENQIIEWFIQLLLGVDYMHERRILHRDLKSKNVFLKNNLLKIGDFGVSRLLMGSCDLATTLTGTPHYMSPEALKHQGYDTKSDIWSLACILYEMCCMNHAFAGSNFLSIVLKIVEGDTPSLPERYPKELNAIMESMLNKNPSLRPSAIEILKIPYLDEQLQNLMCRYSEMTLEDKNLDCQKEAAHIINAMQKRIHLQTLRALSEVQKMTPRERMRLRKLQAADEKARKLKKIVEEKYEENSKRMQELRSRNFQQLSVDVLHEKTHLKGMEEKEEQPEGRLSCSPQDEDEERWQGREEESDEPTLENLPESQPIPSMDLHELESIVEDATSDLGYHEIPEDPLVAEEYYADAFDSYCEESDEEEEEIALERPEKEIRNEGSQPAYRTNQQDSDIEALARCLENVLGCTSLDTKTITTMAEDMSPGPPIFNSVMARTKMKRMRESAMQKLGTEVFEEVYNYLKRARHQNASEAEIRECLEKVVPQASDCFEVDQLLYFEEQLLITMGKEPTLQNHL

[7] = target: NEK6 (Homo sapiens, UniProt Q9HC98); settings: read-out: % Inhibition at 1 μM, NEK6
Sequence of NEK6 (Q9HC98 whole entry, looked up): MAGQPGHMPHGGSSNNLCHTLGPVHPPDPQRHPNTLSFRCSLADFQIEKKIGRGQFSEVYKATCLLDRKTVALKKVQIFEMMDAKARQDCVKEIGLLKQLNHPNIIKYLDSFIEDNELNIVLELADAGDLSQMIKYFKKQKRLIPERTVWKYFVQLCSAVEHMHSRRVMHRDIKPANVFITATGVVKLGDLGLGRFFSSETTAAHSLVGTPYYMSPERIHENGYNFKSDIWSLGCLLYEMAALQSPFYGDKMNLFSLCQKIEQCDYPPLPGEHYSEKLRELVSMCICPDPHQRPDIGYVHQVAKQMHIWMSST

[8] = target: PLK1 (Homo sapiens, UniProt P53350); settings: read-out: % Inhibition at 1 μM, PLK1
Sequence of PLK1 (P53350 whole entry): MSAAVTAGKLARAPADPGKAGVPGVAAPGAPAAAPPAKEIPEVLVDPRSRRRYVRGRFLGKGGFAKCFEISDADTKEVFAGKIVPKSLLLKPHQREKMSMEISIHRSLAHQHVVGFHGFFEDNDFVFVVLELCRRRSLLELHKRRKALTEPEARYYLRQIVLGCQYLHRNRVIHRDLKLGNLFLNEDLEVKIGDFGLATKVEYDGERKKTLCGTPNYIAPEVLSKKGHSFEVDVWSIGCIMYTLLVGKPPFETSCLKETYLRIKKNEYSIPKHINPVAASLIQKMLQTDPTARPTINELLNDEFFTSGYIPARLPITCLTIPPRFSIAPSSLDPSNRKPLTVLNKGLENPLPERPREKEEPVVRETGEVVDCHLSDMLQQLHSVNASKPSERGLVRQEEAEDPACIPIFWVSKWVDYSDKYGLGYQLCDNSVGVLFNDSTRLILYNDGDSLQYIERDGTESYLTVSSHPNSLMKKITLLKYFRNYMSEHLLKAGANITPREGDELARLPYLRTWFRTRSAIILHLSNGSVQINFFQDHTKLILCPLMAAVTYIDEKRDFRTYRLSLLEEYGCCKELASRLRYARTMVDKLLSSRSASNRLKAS

[9] = target: RET (Homo sapiens, UniProt P07949); settings: read-out: % Inhibition at 1 μM, RET
[10] = target: ROCK1 (Homo sapiens, UniProt Q13464); settings: read-out: % Inhibition at 1 μM, ROCK1
Sequence of ROCK1 (Q13464 whole entry, looked up): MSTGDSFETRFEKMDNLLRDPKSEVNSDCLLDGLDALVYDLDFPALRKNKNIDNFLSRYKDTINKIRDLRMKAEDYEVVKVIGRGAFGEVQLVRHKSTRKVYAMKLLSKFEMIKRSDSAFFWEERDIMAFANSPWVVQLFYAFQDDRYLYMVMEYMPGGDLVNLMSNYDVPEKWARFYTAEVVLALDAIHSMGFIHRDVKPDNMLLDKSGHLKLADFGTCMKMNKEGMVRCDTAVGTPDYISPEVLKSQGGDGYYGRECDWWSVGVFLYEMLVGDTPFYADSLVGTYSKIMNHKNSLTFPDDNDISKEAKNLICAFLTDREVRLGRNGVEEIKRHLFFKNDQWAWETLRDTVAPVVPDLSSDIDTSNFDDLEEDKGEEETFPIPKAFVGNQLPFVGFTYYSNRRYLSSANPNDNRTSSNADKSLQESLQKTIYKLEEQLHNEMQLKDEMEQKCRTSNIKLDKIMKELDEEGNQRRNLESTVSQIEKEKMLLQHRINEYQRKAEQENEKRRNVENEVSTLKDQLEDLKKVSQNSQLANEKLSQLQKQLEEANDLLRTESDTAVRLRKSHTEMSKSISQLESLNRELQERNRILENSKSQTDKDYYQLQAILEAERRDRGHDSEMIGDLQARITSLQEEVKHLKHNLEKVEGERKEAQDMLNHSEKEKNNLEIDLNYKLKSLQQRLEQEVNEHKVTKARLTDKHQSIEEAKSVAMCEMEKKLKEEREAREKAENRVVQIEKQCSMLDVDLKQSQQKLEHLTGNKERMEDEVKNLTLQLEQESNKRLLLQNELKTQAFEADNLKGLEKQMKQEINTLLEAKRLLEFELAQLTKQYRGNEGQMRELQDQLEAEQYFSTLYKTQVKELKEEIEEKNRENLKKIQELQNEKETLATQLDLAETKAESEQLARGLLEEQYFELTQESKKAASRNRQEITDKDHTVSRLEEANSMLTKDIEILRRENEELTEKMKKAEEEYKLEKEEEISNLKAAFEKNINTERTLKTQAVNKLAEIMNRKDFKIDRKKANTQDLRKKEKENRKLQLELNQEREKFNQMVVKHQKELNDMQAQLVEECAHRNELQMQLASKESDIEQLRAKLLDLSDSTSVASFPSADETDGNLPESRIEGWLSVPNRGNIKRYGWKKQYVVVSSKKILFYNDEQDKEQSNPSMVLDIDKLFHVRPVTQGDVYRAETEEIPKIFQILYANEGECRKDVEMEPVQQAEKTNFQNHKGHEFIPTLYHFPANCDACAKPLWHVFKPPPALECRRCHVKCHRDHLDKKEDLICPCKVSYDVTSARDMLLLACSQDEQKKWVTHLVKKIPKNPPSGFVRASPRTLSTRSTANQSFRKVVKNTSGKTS

[11] = target: TRKA (Homo sapiens, UniProt P04629); settings: read-out: % Inhibition at 1 μM, TRKA
[12] = target: WEE1 (Homo sapiens, UniProt P30291); settings: read-out: % Inhibition at 1 μM, WEE1
Sequence of WEE1 (P30291 whole entry, looked up): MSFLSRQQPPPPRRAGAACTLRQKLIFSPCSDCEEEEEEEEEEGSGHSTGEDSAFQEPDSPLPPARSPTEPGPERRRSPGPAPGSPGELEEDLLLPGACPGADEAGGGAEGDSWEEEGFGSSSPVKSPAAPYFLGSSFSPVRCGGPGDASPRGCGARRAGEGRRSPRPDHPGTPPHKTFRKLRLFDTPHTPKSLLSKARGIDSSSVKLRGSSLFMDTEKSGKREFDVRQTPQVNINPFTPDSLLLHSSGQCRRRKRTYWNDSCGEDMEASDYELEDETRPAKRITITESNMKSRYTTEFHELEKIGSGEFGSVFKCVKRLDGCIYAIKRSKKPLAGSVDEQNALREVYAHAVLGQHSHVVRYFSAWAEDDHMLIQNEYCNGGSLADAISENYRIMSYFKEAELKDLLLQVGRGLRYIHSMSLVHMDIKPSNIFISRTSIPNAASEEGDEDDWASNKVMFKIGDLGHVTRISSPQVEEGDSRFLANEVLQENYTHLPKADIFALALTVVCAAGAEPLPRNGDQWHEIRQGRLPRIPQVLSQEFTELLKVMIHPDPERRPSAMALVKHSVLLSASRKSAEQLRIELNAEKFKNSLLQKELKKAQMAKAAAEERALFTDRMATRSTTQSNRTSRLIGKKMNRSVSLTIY

Sequence of CDK1/cyclin B (P06493 whole entry, looked up): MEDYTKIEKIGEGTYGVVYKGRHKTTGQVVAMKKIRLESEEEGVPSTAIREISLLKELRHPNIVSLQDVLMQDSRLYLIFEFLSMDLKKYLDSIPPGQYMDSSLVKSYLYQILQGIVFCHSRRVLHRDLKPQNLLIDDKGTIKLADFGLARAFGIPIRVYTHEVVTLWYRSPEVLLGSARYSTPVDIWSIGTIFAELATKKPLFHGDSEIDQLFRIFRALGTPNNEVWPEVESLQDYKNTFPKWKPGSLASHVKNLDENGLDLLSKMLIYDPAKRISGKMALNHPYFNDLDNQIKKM
Sequence of AKT1 (P31749 whole entry): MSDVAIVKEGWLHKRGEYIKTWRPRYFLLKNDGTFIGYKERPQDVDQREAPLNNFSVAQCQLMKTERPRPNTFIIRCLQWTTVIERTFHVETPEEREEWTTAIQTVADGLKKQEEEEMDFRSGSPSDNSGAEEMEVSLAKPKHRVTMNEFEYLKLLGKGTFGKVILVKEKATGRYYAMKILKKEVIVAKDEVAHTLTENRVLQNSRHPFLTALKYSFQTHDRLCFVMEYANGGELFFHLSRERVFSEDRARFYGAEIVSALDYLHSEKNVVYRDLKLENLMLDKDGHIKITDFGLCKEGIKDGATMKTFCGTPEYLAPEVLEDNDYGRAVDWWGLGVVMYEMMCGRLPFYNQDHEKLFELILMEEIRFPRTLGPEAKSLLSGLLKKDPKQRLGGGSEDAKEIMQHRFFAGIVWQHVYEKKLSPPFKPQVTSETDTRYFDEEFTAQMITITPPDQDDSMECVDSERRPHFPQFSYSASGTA

Cc1cc(Nc2cc(N3CCN(C)CC3)nc(Sc3ccc(NC(=O)C4CC4)cc3)n2)n[nH]1 [VX-680]
inhibition at 1 µM [1]: 3%
inhibition at 1 µM [2]: 5%
inhibition at 1 µM [3]: 7%
inhibition at 1 µM [4]: 16%
inhibition at 1 µM [5]: 4%
inhibition at 1 µM [6]: 11%
inhibition at 1 µM [7]: -5%
inhibition at 1 µM [8]: 0%
inhibition at 1 µM [9]: 96%
inhibition at 1 µM [10]: -2%
inhibition at 1 µM [11]: 95%
inhibition at 1 µM [12]: 2%
